Assays:
[1] = system: meningeal lymphatic vessels; test: Visudyne ablation, OVA-A647 CSF tracer drainage and brain influx (Example 2); type: in vivo, C57BL/6 mice; details: vs vehicle
Procedure: Adult C57BL/6 mice were injected with visudyne or vehicle (ICM) followed by a step of photoconversion. 7 days post ablation, 2.5 μg of ovalbumin-Alexa647 (OVA-A647) was injected into the CSF (ICM) and mice were transcardially perfused with saline 2 h after. j, Representative sections of dcLNs were stained with DAPI and LYVE-1, and levels of drained OVA-A647 were measured, and representative sections are shown for vehicle (FIG. 24A) and visudyne (FIG. 24B). OVA-A647 alone is shown in the inset in the upper right corner of each of FIGS. 24A and 24B, and LYVE-1 alone is shown in the inset in the lower right corner of each of FIGS. 24A and 24B.

[2] = system: meningeal lymphatic vessels; test: Visudyne ablation in old mice, OVA-A647 CSF tracer (Example 3); type: in vivo, C57BL/6 mice; details: old (20-24 months-old) mice, 7 days post ablation, vs old+vehicle
Procedure: Injections of visudyne or vehicle (ICM), followed by a photoconversion step, were performed in adult (3 months-old) or old (20-24 months-old) C57BL/6 mice. 7 days post ablation, OVA-A647 (2.5 μg) was injected into the CSF (ICM) and mice were transcardially perfused with saline 2 h after.

[3] = system: meningeal lymphatic vessels; test: Visudyne ablation then repeated Aβ42 injection into CSF, meningeal aggregates (Example 8); type: in vivo, C57BL/6 mice; details: Aβ42 2.5 μg every 24 h into CSF for 5 days, from 72 h after ablation, vs vehicle
Procedure: C57BL/6 adult mice were anesthetized and injected ICM with visudyne to induce meningeal lymphatic vessel ablation, or vehicle as a control. After the photoconversion step, mice were allowed to recover for 72 h. Then, catheters were implanted in the cisterna magna of all mice and 2.5 μg of Aβ42 were injected every 24 h into the CSF for a total of 5 days. […] Results are presented as mean±s.e.m.; n=5 per group; *P<0.05, **P<0.01, one-tailed Mann-Whitney test.

[4] = system: 5xFAD (APPSweFILon,PSEN1*M146L*L286V) transgenic mice; test: Visudyne ablation in 5xFAD mice, amyloid pathology (Example 9); type: in vivo; details: ablation every 3 weeks for 1.5 months
Source text: Meningeal lymphatic ablation in 1.5 months-old 5xFAD (APPSweFILon,PSEN1*M146L*L286V) transgenic mice was achieved by ICM injection of visudyne, or vehicle as a control, followed by a step of transcranial photoconversion. This procedure was repeated every 3 weeks, for a total of 1.5 months. Meninges of 5xFAD mice from the different groups were stained with DAPI and for LYVE-1 and Aβ. Aβ aggregates were detected in the meninges of 5xFAD mice that undergone lymphatic ablation by visudyne, but not in the meninges of vehicle-injected mice. Aβ aggregates formed specially around the sinuses and in the cerebellar meninges. Hippocampus was stained for DAPI and Amyloid-beta in vehicle or visudyne-injected 5xFAD mice (scale bar, 1 mm, inset, 200 μm). […] Results are presented as mean±s.e.m.; n=5 per group: *P<0.05, one-tailed Mann-Whitney test.

[5] = system: APPSwe transgenic mice; test: Visudyne ablation in APPSwe mice, Morris water maze (Example 10); type: in vivo; details: APPSwe mice 6-7 months-old, ablation every 2 weeks for 1 month, vs vehicle
Source text: Adult (6-7 months-old) APPSwe transgenic mice were anesthetized, injected with visudyne (ICM), or vehicle as a control, and submitted to a step of transcranial photoconversion, every 2 weeks for a total of 1 month. […] Results are presented as mean±s.e.m.; n=9 per group; *P<0.05, two-way ANOVA—Repeated Measures, with Bonferroni post hoc test.

[6] = system: meningeal lymphatics; test: Photoablation of meningeal lymphatics, Visudyne 5 or 20 μg, 690 nm laser (FIG. 14); type: in vivo, mice; details: 5 or 20 μg i.c.v., 24 hrs post-ablation
Procedure: Meninges were stained for Lyve-1, Prox1 and CD31 24 hrs post-ablation. […] In FIG. 14C, the top panel refers to a control, the middle mane refers to 20,000 ng of Visudyne, and the bottom panel refers to 5,000 ng of Visudyne.

[7] = system: meningeal lymphatic; test: Lymphatic drainage of fluorescent microbeads into deep cervical lymph nodes (FIG. 15); type: in vivo, mice; details: pharmacological ablation, 24 h after ablation, vs PBS
Procedure: FIGS. 15A-E are a series of diagrams, microscope images, and graphs showing modulation of the meningeal lymphatic affects drainage into the cervical lymph nodes. […] Fluorescent microbeads (0.5 μm in diameter-5 μl) were injected in the lateral ventricle of mice at a rate of 0.5 μl/min. 30 min later, the deep cervical lymph nodes were harvested, sliced and immunostained for the presence of fluorescent beads. FIG. 15B is a pair of representative sections of deep cervical lymph nodes from sham operated (left) and ligated (right) mice immunostained for lymphatic vasculature (Lyve-1), fluorescent microbeads and Lyve-1. Note the accumulation of microbeads in the subcapsular space of the lymph nodes in the sham operated mice (left). […] N=3-4 mice per group, Student-t-test. d. Quantification of the coverage of dCLN section by fluorescent beads in PBS and Visudyne injected mice (24 h after ablation). N=3-5 mice per group, *p<0.05, Student-t-test. e. Quantification of the coverage of dCLN section by fluorescent beads in PBS and VEGF-c injected mice (5 days after VEGF-c injection). N=4 mice per group.

For verteporfin [Visudyne], the “amount of OVA-A647 drained into the dcLNs” value ([1]; 2 h after OVA-A647 2.5 μg ICM, 7 days post ablation) was “significantly decreased”, the “OVA-A647 influx into the brain parenchyma” value ([1]; 2 h after OVA-A647 ICM, 7 days post ablation) was “significant decrease” and the “brain parenchyma coverage by aquaporin 4 (AQP4) expressing cells” value ([1]; adult mice, visudyne-induced ablation) was “no changes”. For the same substance, the “influx of a CSF tracer (OVA-A647) into the brain” value [2] was “does not further aggravate”, the “area occupied by Aβ aggregates in meningeal whole-mounts” value [3] was “significant increase in aggregates” and the “Aβ aggregates in the meninges” value ([4]; not in vehicle-injected mice) was “detected”. The “amyloid plaque coverage in the hippocampus” value ([4]; vs vehicle) was “statistically significant increase”, the “amyloid plaque number in the hippocampus” value ([4]; vs vehicle) was “statistically significant increase” and the “amyloid plaque size in the hippocampus” value ([4]; vs vehicle) was “trend for increased plaque size”. For the same substance, the “MWM probe and reversal” value [5] was “No differences”, the “latency to find the platform, 4th day of the acquisition phase of the MWM” value [5] was “Significant differences” and the “effect on the blood vessels (CD31)” value [6] was “No effect on the blood vessels”. The “meningeal lymphatics in superior sagittal and transverse sinuses (Lyve-1, Prox1)” value [6] was “Disruption of lymphatics” and the “lymphatic drainage into the cervical lymph nodes after ablation” value [7] was “alteration of lymphatic drainage”.

From patent US11944665B2, “Methods and compositions for modulating lymphatic vessels in the central nervous system” (University of Virginia Patent Foundation, priority 2016, dated 2024)
